Consider eight molecules from patent publication US6685617B1, “Inhibitors of α4β1 mediated cell adhesion” (Pharmacia & Upjohn Company, priority 1998, dated 2004).

The target of data set [1] is T1, α4β1 integrin (Jurkat T-cell adhesion to IL-1 stimulated endothelial cell monolayers) (Homo sapiens, UniProt P05556+P13612).
T1 construct: a T-cell line, Jurkat, known to express the α4β1 integrin; host or cells: Jurkat T-cell line
Nature of the data set: Jurkat-endothelial cell adhesion assay (Jurkat EC). In kind it is cell-based. The conditions noted are these: Jurkat cells on IL-1 stimulated human umbilical vein endothelial cells; read-out: JK/EC (Jurkat EC Assay IC50 value range). A digest of the protocol: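 BCECF-AM-labelled Jurkat cells were mixed with compound, generally 100, 20, 5 and 1.25 μM, and added to HUVEC monolayers (passage ≤6) pre-stimulated 4 hr at 37° C with 0.1 ng/ml IL-1. After 5 min on ice and 20 min at 37° C, washed wells were read by fluorescence as % adhesion relative to no compound.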

The target in data set [2] is T2, α4β1 integrin (Jurkat cell adhesion to immobilized CS-1 derived peptide CLHPGEILDVPST) (Homo sapiens, UniProt P05556+P13612).
T2 construct: 100 μl of Jurkat cells (2.5×10^6 cells/ml) in DMEM plus BSA; host or cells: Jurkat T-cell line
T2 sequence (P13612 34-1032): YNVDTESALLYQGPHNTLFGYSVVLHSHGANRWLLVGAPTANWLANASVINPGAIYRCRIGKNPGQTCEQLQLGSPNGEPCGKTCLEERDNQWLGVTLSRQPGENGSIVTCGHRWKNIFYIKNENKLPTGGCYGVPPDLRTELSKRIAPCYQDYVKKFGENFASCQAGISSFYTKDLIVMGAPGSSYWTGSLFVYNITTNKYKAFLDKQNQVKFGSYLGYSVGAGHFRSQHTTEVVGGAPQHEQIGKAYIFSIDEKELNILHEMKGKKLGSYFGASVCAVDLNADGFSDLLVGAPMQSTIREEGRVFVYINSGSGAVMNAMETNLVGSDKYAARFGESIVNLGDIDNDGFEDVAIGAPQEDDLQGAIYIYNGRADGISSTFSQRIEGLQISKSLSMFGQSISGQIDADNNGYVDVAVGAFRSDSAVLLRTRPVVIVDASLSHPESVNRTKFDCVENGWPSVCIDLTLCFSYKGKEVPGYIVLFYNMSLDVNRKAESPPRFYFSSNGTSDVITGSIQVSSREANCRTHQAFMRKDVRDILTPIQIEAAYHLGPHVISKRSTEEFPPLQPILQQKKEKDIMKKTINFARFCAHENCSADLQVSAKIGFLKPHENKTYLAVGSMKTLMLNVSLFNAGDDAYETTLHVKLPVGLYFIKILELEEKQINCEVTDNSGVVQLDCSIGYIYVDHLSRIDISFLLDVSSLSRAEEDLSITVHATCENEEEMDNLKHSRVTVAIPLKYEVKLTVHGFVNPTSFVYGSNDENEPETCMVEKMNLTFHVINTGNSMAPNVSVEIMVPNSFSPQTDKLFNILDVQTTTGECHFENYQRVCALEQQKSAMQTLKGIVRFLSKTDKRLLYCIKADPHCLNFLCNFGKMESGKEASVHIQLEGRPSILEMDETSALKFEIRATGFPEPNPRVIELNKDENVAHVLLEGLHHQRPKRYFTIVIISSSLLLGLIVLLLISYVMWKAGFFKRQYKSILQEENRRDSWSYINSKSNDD
T2 sequence (P05556 21-798): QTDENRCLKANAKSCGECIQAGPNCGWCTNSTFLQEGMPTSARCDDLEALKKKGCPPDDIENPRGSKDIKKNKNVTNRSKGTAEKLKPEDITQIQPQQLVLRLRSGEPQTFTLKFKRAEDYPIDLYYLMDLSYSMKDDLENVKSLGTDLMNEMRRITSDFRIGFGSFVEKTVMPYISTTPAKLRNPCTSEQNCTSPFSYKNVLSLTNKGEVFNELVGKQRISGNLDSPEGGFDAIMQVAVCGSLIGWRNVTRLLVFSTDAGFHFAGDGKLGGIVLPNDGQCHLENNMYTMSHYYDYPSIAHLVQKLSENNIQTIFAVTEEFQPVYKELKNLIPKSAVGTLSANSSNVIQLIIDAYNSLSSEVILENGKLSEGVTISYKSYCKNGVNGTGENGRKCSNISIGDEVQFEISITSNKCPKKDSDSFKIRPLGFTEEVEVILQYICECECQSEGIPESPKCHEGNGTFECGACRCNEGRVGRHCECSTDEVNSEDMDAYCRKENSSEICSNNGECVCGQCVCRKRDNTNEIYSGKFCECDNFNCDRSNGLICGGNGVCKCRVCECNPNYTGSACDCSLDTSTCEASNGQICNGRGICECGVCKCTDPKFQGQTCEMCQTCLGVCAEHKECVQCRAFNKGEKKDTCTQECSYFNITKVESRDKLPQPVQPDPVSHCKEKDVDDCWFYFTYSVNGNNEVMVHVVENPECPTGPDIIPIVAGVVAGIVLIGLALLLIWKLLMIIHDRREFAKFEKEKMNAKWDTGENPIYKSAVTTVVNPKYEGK
Description: Jurkat-CS-1 assay. In kind it is cell-based. The conditions noted are these: Jurkat cells on CS-1 peptide coated plates; read-out: JK/CS-1 (Jurkat CS-1 Assay IC50 value range). A digest of the protocol: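 CS-1 peptide was SPDP-crosslinked onto HSA-coated plates and blocked with BSA. Jurkat cells (2.5×10^6 cells/ml) in DMEM/BSA were mixed with compound, generally at 100, 20, 5 and 1.25 μM, and allowed to adhere for 1 hr at 37° C. Bound cells were fixed, stained with toluidine blue and quantified by OD590.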

Data set [3] relates to VLA-4 integrin-dependent eosinophil infiltration. Description: Dextran pleurisy model (intrapleural dextran, pleural leukocyte infiltration). Format: in vivo, C57BL/6 mice. The conditions noted are these: dose 50 × 2 iv; mouse, 4 h after intrapleural dextran. The protocol:
Animals, Housing and Viral Testing:
C57BL/6 mice (Jackson, Bar Harbor, Me.), 6-8 weeks old, weighing 20-25 g were used throughout. All mice were acclimated for at least 7-14 days after arrival and maintained under controlled temperature (20-22° C.) and a 12 hr daily light cycle (6.00 A.M.-6.00 P.M.). Mice were housed in laminar flow racks and checked biweekly for viral infections (mouse hepatitis virus, minute virus of mice, rodent orphan parvovirus, Sendai) with kits obtained from Oreganon Teknika (Durham, N.C.) using established enzyme-linked immunoabsorbent assays. Mice testing positive for any of the above were omitted from the study. […]
Quantitation of Pleural Inflammatory Leukocyte Responses: […]
The pleural cavities of mice receiving either no intrapleural injection, or saline were washed and the cells counted in the same way to estimate baseline or saline-induced pleural leukocyte counts respectively. […]
The following compounds were tested for their inhibitory effects on dextran-induced leukocyte infiltration: Examples 3, 8, 9, 10, 12, 16, 37, 62, 66, 67, 99, 100, 111, 113, 115, 127, 131, 141, 184, 185, 192, PBS (saline) was administered iv. as a control. Inhibition of eosinophil infiltration, which was suppressed by anti-alpha-4 Mab (PS/2, 50%), was used as a readout of VLA-4 antagonist activity of the compounds tested. […]

T1 sequence (P13612 34-1032): as the sequence (P13612 34-1032) above
T1 sequence (P05556 21-798): as the sequence (P05556 21-798) above

Usually melting point stands for the temperature, or range, at which the solid turns liquid. Regarding `COC(=O)[C@H](Cc1ccc(NC(=O)c2c(Cl)cccc2Cl)cc1)NC(=O)[C@H]1CSCN1C(=O)N(C)CCc1ccccn1` [Example 54, 4-[(2,6-Dichlorobenzoyl)amino]-N-[[(4S)-3-[[methyl[2-(2-pyridinyl)ethyl]amino]carbonyl]-4-thiazoidinyl]carbonyl]-L-phenylalanine Methyl Ester], the melting point is 80 to 90 °C (dec.). Besides, in data set [1], the IC50 is no less than 1000 nM. In data set [2], the IC50 was in the range of 50 to 750 nM.

Turning to `COC(=O)[C@H](Cc1ccc(NC(=O)c2c(Cl)cccc2Cl)cc1)NC(=O)[C@H]1CSCN1C(=O)N1CCOCC1` [Example 56, 4-[(2,6-Dichlorobenzoyl)amino]-N-[[(4S)-3-(4-morpholinylcarbonyl)-4-thiazolidinyl]carbonyl]-L-phenylalanine Methyl Ester], the melting point was in the range of 223 to 225 °C. The IC50 in data set [1] was no less than 1000 nM. Moreover, in data set [2], the IC50 was 50 to 750 nM.

Consider `COC(=O)[C@H](Cc1ccc(NC(=O)c2c(Cl)cccc2Cl)cc1)NC(=O)[C@H]1CSCN1C(=O)N(CCO)CCO` [Example 57, N-[[(4S)-3-[[bis(2-Hydroxyethyl)amino]carbonyl]-4-thiazolidinyl]carbonyl]-4-[(2,6-dichlorobenzoyl)amino]-L-phenylalanine Methyl Ester], for which the melting point fell in the range of 105 to 107 °C. In data set [1], the IC50 is no less than 1000 nM. Further, the IC50 in data set [2] is no less than 750 nM.

The molecule `CCOC(=O)N1[C@@H](C(=O)N[C@@H](Cc2ccc(NC(=O)c3c(Cl)cccc3Cl)cc2)C(=O)OC)C[C@@H]1C(=O)OC` [Example 140, [2R-(2α,4β(S*)]-4-[[[1-[[4-[(2,6-Dichlorobenzoyl)amino]phenyl]methyl]-2-methoxy-2-oxoethyl]amino]carbonyl]-1,2-azetidinedicarboxylic Acid 1-Ethyl-2-methyl Diester] showed a melting point of 97 to 99 °C. For the same molecule, the IC50 in data set [1] is no less than 1000 nM. The IC50 in data set [2] was no less than 750 nM.

`COC(=O)[C@H](Cc1ccc(NC(=O)c2c(Cl)cccc2Cl)cc1)NC(=O)[C@@H]1CCN1C(=O)OC(C)(C)C` [Example 142, [2S-(R*,R*)]-2-[[[1-[4-[(2,6-Dichlorobenzoyl)amino]phenylmethyl]-2-methoxy-2-oxoethyl]amino]carbonyl]-1-azetidinecarboxylic Acid 1-(1,1-Dimethyl)ethyl Ester] had a melting point of 106 to 108 °C. The IC50 in data set [1] was no less than 1000 nM. In addition, the IC50 in data set [2] is no less than 750 nM.

On to `COC(=O)[C@H](Cc1ccc(NC(=O)c2c(Cl)cccc2Cl)cc1)NC(=O)[C@@H]1CCN1` [Example 158, [2S-(R*,R*)]-2-[[[1-[[4-[(2,6-Dichlorobenzoyl)amino]phenyl]methyl]-2-methoxy-2-oxoethyl]amino]carbonyl]azetidine], for which the melting point fell in the range of 113 to 115 °C. The IC50 in data set [1] is no less than 1000 nM. Further, the IC50 in data set [2] is no less than 750 nM.

Molecule `CS(=O)(=O)N1CSC[C@@H]1C(=O)N[C@@H](Cc1ccc(OCc2c(Cl)cccc2Cl)cc1)C(N)=O` [Example 159] displayed a melting point of 228 to 230 °C. Further, in data set [1], the IC50 was no less than 1000 nM. The IC50 in data set [2] is no less than 750 nM.

For the molecule “[2R-[1(S*),2α,4β(S*)]]-4-[[[1-Carboxy-2-[4-[(2,6-dichlorobenzoyl)amino]phenyl]ethyl]-amino]carbonyl]-1-(1-phenylethyl)-2-azetidincearboxylic Acid, Dilithium Salt [Example 131]”, the IC50 was in the range of 250 to 1000 nM in data set [1] and 50 to 750 nM in data set [2]. The “% Inhibition of Eosinophil infiltration (Eos)” value in data set [3] is “C (C<19)”.
